In PMC3362575, “Synthesis and Biological Evaluation of Phenanthrenes as Cytotoxic Agents with Pharmacophore Modeling and ChemGPS-NP Prediction as Topo II Inhibitors” (PLoS ONE, 2012):
Values after ≈ are worked out from the molar mass of the structure shown.

Columns and labels:
[1] = system: HepG2; assay: MTT cytotoxicity assay, HepG2; type: cell-based, human; conditions: Homo sapiens, HepG2, Table 2, synthesized phenanthrenes
Method: (§1) The cytotoxic assay of 11 naturally occurring and 19 synthesized phenanthrenes was carried out on a diverse set of human liver (HepG2 and Hep3B), oral (Ca9-22), lung (A549) and breast (MEA-MB-231 and MCF7) cancer cell lines, and a human fetal lung fibroblast (MRC-5) cell line (Tables 1 and 2).
(§2) Compounds were tested against human liver (HepG2 and Hep3B), oral (Ca9-22), lung (A549), breast (MEA-MB-231 and MCF7) cancer cell lines, and the human fetal lung fibroblast (MRC-5) cell line using an established colorimetric MTT assay protocol. The absorbance was measured at 550 nm using a microplate reader. The IC50 is the concentration of agent that reduced cell growth by 50% under the experimental conditions.

[2] = system: Hep3B; assay: MTT cytotoxicity assay, Hep3B; type: cell-based, human; conditions: Homo sapiens, Hep3B, Table 2, synthesized phenanthrenes
Method: as §1, §2

[3] = system: Ca9-22; assay: MTT cytotoxicity assay, Ca9-22; type: cell-based, human; conditions: Homo sapiens, Ca9-22, Table 2, synthesized phenanthrenes
Method: as §1, §2

[4] = system: A549; assay: MTT cytotoxicity assay, A549; type: cell-based, human; conditions: Homo sapiens, A549, Table 2, synthesized phenanthrenes
Method: as §1, §2

[5] = system: MCF-7; assay: MTT cytotoxicity assay, MCF-7; type: cell-based, human; conditions: Homo sapiens; for IC50: MCF7, Table 2, synthesized phenanthrenes, MTT; for MCF-7 activity class (from IC50): MCF7, Table S3, read-out: Scale Exptl. (MCF-7 activity class)
Method: as §1, §2
The pharmacophore modeling with Catalyst HypoGen was performed via Discovery Studio 2.1 (Accelrys, San Diego, CA, USA). Twenty-nine phenanthrene derivatives were collected from the natural plant, C. arisanensis, and from chemical synthesis (Figure 2). Cytotoxicity against MCF-7 cells was determined by the MTT assay and the concentration (µg/mL) of test compound which inhibited 50% of the cancer cells (IC50) was used in the generation of the pharmacophore model. An IC50 value of >20 µg/mL was defined as 20 µg/mL. All experimental IC50 values spanned about 2–3 orders of magnitude from 0.09 to 20 µg/mL. The 2D/3D structures of compounds were generated using ChemBioOffice 2008 (Cambridge Scientic Computing, Cambridge, Massachusetts, USA) and then optimized in a Dreiding force field. The conformational ensemble of each compound was generated using the best conformational analysis method based on a CHARMM force field with a 20 kcal/mol energy threshold above the global minimum. A maximum limit of 255 conformations was used to cover maximum conformational space. The best 3D arrangements of chemical functionalities should explain the activity variations among the 29 compounds. Thirty runs with different parameters were performed for the best pharmacophore hypothesis. Four chemical features, including hydrogen-bond acceptor (HBA), hydrogen-bond donor (HBD), hydrophobic (HYD), and aromatic ring (AR) features, were also tested during the building of pharmacophore hypotheses (Table S1; Text S1). The best hypotheses were selected via a correlation and a cost analysis in Catalyst HypoGen.

[6] = system: MDA-MB-231; assay: MTT cytotoxicity assay, MDA-MB-231; type: cell-based, human; conditions: Homo sapiens, MDA-MB-231, Table 2, synthesized phenanthrenes
Method: as §1, §2

[7] = system: MRC-5; assay: MTT cytotoxicity assay, MRC-5 fetal lung fibroblast; type: cell-based, human; conditions: Homo sapiens, MRC5, Table 2, synthesized phenanthrenes, normal fetal lung fibroblast
Method: as §1, §2

[8] = system: human cancer cell lines; assay: MTT cytotoxicity assay, ranges over the cancer cell line panel; type: cell-based; conditions: all human cancer cell lines
Method: as §1, §2

[9] = target: T1, topoisomerase IIα (Homo sapiens, UniProt P11388); assay: Topoisomerase II DNA cleavage assay (Topo II Drug Screening Kit); type: biochemical
T1 construct: purchased TopoGEN, Inc
T1 sequence (P11388 whole entry): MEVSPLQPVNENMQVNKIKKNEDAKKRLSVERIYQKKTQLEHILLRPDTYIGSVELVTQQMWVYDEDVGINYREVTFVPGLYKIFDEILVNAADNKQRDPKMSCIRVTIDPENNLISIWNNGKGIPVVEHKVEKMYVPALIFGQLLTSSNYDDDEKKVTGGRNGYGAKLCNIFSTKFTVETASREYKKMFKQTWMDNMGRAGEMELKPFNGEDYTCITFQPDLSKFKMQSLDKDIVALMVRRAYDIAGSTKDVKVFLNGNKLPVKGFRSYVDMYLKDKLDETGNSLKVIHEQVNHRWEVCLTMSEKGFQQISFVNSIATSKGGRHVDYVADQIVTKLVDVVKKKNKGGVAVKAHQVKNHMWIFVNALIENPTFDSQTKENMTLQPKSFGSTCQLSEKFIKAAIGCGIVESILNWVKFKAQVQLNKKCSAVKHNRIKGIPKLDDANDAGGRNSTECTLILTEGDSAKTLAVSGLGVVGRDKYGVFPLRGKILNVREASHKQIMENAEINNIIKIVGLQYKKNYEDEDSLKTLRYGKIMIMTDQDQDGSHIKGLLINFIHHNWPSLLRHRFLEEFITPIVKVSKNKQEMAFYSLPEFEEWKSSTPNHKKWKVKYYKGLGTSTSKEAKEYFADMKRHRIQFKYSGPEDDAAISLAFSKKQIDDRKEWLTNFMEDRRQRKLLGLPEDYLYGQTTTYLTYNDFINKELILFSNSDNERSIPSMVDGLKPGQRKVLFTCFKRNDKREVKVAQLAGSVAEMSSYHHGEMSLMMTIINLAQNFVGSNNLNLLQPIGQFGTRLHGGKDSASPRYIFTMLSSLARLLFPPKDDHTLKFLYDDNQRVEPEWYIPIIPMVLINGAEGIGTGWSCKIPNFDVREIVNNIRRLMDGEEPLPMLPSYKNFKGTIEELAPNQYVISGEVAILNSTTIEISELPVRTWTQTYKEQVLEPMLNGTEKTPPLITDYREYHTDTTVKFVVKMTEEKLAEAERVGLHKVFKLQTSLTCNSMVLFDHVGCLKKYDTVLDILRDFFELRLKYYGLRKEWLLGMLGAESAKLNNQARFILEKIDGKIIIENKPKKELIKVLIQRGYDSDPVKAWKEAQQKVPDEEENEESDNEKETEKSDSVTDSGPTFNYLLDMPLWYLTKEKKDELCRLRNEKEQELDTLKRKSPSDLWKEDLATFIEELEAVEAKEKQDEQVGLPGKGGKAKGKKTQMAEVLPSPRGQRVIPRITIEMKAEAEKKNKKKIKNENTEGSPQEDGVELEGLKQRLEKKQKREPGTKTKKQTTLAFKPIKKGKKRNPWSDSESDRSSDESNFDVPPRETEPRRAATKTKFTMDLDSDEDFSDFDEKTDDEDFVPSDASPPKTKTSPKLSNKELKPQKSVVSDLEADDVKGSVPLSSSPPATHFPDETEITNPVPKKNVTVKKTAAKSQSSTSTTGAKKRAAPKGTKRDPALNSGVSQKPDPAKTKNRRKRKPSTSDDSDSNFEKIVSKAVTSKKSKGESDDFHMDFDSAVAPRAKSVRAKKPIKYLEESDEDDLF
Method: From the ChemGPS-NP analysis, it seems that the MOA for 3-methoxy-1,4-PQs might processes cytotoxicity as a topoisomerase II inhibitor.
Figure 10 Topoisomerase II DNA cleavage assay. An in vitro assay was used to assess the effect of compounds 6a and 5a on the DNA cleavage activity of human TopoII. Etoposide was the positive control. Control lane: TopoIIα + plasmid DNA. DMSO lane: TopoIIα + plasmid DNA + DMSO.
Topoisomerase II assay was performed by using a Topo II Drug Screening Kit (TopoGEN, Inc.). In brief, 0.1 µg of pHOT plasmid DNA was incubated with 2 units of topoisomerase IIα in 20 µL assay buffer at 37°C for 40 min in the presence of tested compounds (6a, 5a) and control drug, etoposide, respectively. 2 µL of 10% SDS and 2.5 µL of 10 mg/mL proteinase K were added into the reaction sample and then incubated for 30 min at 37°C to digest topoisomerase IIα. The samples were mixed with 2 µL of loading buffer and cleaned up by adding an equal volume of phenol:chloroform:isoamyl alcohol (25∶24∶1) according to the description. The sample was mixed by vortex and centrifuge for 10 sec. An aliquot (10 µL) of the upper aqueous part was analyzed by electrophoresis with 2% agarose gel containing 0.5 µg/mL of ethidium bromide.

Work on COC1=CC(=O)c2ccc3cc(OC)c(OC)c(OC)c3c2C1=O [Compound 5a, 3,5,6,7-Tetramethoxy-1,4-phenanthrenequinone] yielded an IC50 [1] of 4.65 ± 0.07 µg/mL (≈ 14.2 µM), an IC50 [2] of 4.67 ± 0.81 µg/mL (≈ 14.2 µM) and an IC50 [3] of 5.99 ± 0.24 µg/mL (≈ 18.2 µM). For the same compound, the IC50 [4] was 11 ± 0.44 µg/mL (≈ 33.6 µM), the IC50 [5] was 14.3 ± 0.5 µg/mL (≈ 43.5 µM) and the MCF-7 activity class (from IC50) [5] was 1 to 20 µg/mL. For the same compound, the IC50 [6] was over 20 µg/mL, the IC50 [7] was over 20 µg/mL and the “activity against all human cancer cell lines” value [8] was “marginal activities”. The “inhibition on Topo IIα (supercoiled DNA instead of relaxed)” value ([9]; 200 µmol/L) was “had the similar effect” and the “formation of linear DNA (Topo IIα DNA cleavage complex)” value ([9]; pHOT plasmid DNA, topoisomerase IIα) was “induced the formation of linear DNA”.
COc1cc(O)c2c(ccc3c(OC)ccc(OC)c32)c1 [Compound 9b, 5-hydroxy-1,4,7-trimethoxy-phenanthrene] gave an IC50 [1] of over 20 µg/mL, an IC50 [2] of over 20 µg/mL and an IC50 [3] of over 20 µg/mL. It also gave an IC50 [4] of over 20 µg/mL, an IC50 [5] of over 20 µg/mL and an MCF-7 activity class (from IC50) [5] of over 20 µg/mL. It also gave an IC50 [6] of over 20 µg/mL, an IC50 [7] of over 20 µg/mL and a melting point of 71 °C.
Compound COC1=CC(=O)c2ccc3c(-c4c(OC)c(OC)c(OC)c5c6c(ccc45)C(OC)=CC(=O)C6=O)c(OC)c(OC)c(OC)c3c2C1=O [Compound 5f, 3,5,6,7,1′,5′,6′,7′-octamethoxy-[8,8′]bi-1,4,5′,6′-phenanthrenequinone] has an IC50 [1] of 19.6 ± 0.74 µg/mL (≈ 30 µM), an IC50 [2] of 7.88 ± 0.19 µg/mL (≈ 12 µM) and an IC50 [3] of 4.57 ± 0.03 µg/mL (≈ 6.98 µM). It also gave an IC50 [4] of over 20 µg/mL, an IC50 [5] of 14.8 ± 0.21 µg/mL (≈ 22.6 µM) and an MCF-7 activity class (from IC50) [5] of 1 to 20 µg/mL. It also gave an IC50 [6] of 4.74 ± 0.02 µg/mL (≈ 7.24 µM), an IC50 [7] of over 20 µg/mL and a melting point of 268 °C.
COc1cc(OC)c2c3c(ccc2c1)C(=O)CC(OC)(OC)C3=O [Compound 5c, 3,3,5,7-tetramethoxy-2,3-dihydro-1,4-phenanthrenequinone] gave an IC50 [1] of over 20 µg/mL, an IC50 [2] of 13.8 ± 0.38 µg/mL (≈ 41.7 µM) and an IC50 [3] of 9.07 ± 0.09 µg/mL (≈ 27.5 µM). The IC50 [4] was 12 ± 2.18 µg/mL (≈ 36.3 µM), the IC50 [5] was 11.1 ± 0.02 µg/mL (≈ 33.6 µM) and the MCF-7 activity class (from IC50) [5] was 1 to 20 µg/mL. For the same compound, the IC50 [6] was 19.1 ± 0.43 µg/mL (≈ 57.9 µM), the IC50 [7] was over 20 µg/mL and the melting point was 179 °C.
